Three compounds from patent EP0761222A1, “Use of orotic acid for the preparation of a medicament for amelioration of microcirculation” (WÖRWAG PHARMA GmbH, priority 1995, dated 1997) can be followed below.

SMILES strings stand for the structures.

Common to all, as to type: in vivo
Experiment [1] deals with Kaninchen. The experiment is described as follows: Arteriosclerosis model under 2 % cholesterol diet, planimetric-photographic (density slice) and histological evaluation of vessels. To be noted: 112 Tage 2 % cholesterol diet; for Index arteriosklerotischer Gefäßveränderungen (Gefäßverengungen): equimolar amounts, untreated control index 34,36, Fig. 1. The text has this: (§1) In einer Versuchsreihe mit einem Arteriosklerose-Modell wurden Kaninchen über 112 Tage einer zweiprozentigen Cholesterindiät ausgesetzt und mit äquimolaren Mengen von` Magnesiumchlorid, Orotsäure und Magnesiumorotat bzw. in der Kontrollgruppe überhaupt nicht weiter behandelt. Zusätzlich zu histologischen Untersuchungen der Koronaarterien sowie der Aorta femoralis und renalis wurde der Zustand der Aorta an jeweils mehreren Stellen auch planimetrisch-photographisch dokumentiert. Mittels einer computergestützten, digitalen Methode der Oberflächenmessung ("density slice"-Methode) erhält man hierbei dreidimensionale Bilder, mit deren Hilfe auch eine Quantifizierung der cholesterininduzierten Lumeneinengungen möglich ist.

Experiment [2] has as its system Kaninchen. Kind of experiment: Coronary angiography in the arteriosclerosis model of Beispiel 2. To be noted: cholesterol stress, untreated control developed Mikroangiopathien.
From the text: as §1
Zusätzlich zu den planimetrisch-photographischen Untersuchungen wurde bei der Versuchsreihe aus Beispiel 2 auch eine koronarangiographische Untersuchung vorgenommen.

Experiment [3] deals with Patienten mit Durchblutungsstörungen. Kind of experiment: Effect of a single oral dose of Magnesiumorotat on flow properties of human blood, blood pressure and transcutaneous oxygen pressure. The method, then:
10 Patienten mit Durchblutungsstörungen wurden 4 g Magnesiumorotat zusammen mit ca. 150 ml Wasser verabreicht. Die Blutentnahme erfolgte vor und im Abstand von 15, 30, 60, 120 und 180 Minuten nach der Tabletteneinnahme. Direkt vor jeder Blutentnahme wurden Blutdruck, Puls, der transkutane Sauerstoffdruck, der transkutane Kohlendioxiddruck und die Heizleistungsabweichung gemessen. Es wurden folgende Blutparameter untersucht: • Hämatokrit • BSC • Plasmaviskosität • Erythrozytenaggregation • Erythrozytenfiltrabilität.
Es wurde eine Senkung des systemischen Druckes, insbesondere des systolischen Druckes, bis zum Zeitpunkt 60 Minuten nach Tablettenvergabe festgestellt. Die relative Plasmaviskosität erreicht 60 Minuten nach Tabletteneinnahme ihr Minimum mit anschließender Tendenz zur Normalisierung. In ähnlicher Weise verhält sich die Blutviskosität, die 30 Minuten nach Tabletteneinnahme ein Minimum aufweist.
Besonders interessant sind die Veränderungen der transkutanen Sauerstoffdruckwerte, die im Bereich des Vorfußes abgenommen werden. Bei diesen Patienten mit einer chronisch-arteriellen Verschlußkrankheit sind die tcpO2-Werte bekannterweise nicht sonderlich erniedrigt. Die Ergebnisse der pO2-Werte zeigen doch, daß es zu einem Anstieg der pO2-Werte kommt, die zu dem Zeitpunkt 15 und 30 Minuten statistisch gesichert sind. Dieser Anstieg der tcpO2-Werte überrascht und beruht auf den verbesserten Fließeigenschaften des Blutes.

In experiment [4] the test system is Triathleten. The experiment is described as follows: Double-blind, randomised, placebo-controlled triathlon test, parameters of energy metabolism in blood. To be noted: four weeks Magnesiumorotat 17 mmol/Tag. An excerpt:
In einer doppelblinden, randomisierten und placebokontrollierten Studie wurden 23 Triathleten einem 500 m Schwimm-, 20 km Fahrrad- und 5.000 m Lauftest nach einer vierwöchigen Magnesiumorotat-Supplementierung von 17 mmol/Tag unterworfen. Die Tests wurden ohne Pausen direkt hintereinander absolviert. Vor dem Test, zwischen den Disziplinen und am Ende wurde den Probanden Blut entnommen und auf Parameter des Energiestoffwechsels untersucht.

For experiment [5], the system named is Wistar-Ratten. The experiment is described as follows: Hypertension animal model (ROG-Modell, LG-Modell), malignant hypertension. An excerpt:
In den Hypertonie-Tiermodellen nach Rojo-Ortega-Genest (ROG-Modell) und Lörincz-Goracz (LG-Modell) wird bei Wistar-Ratten die Aorta zwischen den beiden Renalarterien unterbunden bzw. die Niere in eine Gummimanschette fest eingepreßt, was einen malignen Hypertonus hervorruft, also eine Hypertonie mit konstanter Erhöhung des arteriellen diastolischen Blutdruckes auf > 120 mmHg.
Das Ergebnis dieser Untersuchung ist in Fig. 2 dargestellt, wobei die dunklen Säulen jeweils den Beginn der ROG-Hypertonie anzeigen, während die hellen Säulen das Ende der ROG-Hypertonie darstellen. Links in Fig. 2 ist die ROG-Hypertonie ohne Behandlung gezeigt, während die beiden rechten Säulen den Verlauf der ROG-Hypertonie unter Zugabe von täglich 300 mg Magnesiumorotat wiedergibt.

`[Cl-].[Cl-].[Mg+2]` [Magnesiumchlorid, reference compound]: in experiment [1], the “Index arteriosklerotischer Gefäßveränderungen (Gefäßverengungen)” value was 22,63.

Turning to `O=C(O)c1cc(=O)[nH]c(=O)[nH]1` [Magnesiumorotat], the “Wirkung bei Mikroangiopathien von kleinen und kleinsten Blutgefäßen am Herzen” value in experiment [2] is “präventive und therapeutische Wirkung”. In addition, the “Index arteriosklerotischer Gefäßveränderungen (Gefäßverengungen)” value in experiment [1] was 7,28. Moreover, the “lumeneinengende Proliferation von Schaumzellen in den Koronarien” value in experiment [1] (light/electron microscopy, enzyme histochemistry) is reported as “weitaus am geringsten ausgeprägt”. Further, in experiment [3] (4 g Magnesiumorotat oral, single dose, 10 patients, until 60 Minuten after tablet intake), the “systemischer Druck, insbesondere systolischer Druck” value is reported as “Senkung”. For the same compound, in experiment [3] (4 g Magnesiumorotat oral, 15-180 Minuten after intake), the Erythrozytenfiltrationswerte result was “zu keinem Zeitpunkt nach der oralen Gabe von Magnesiumorotat zu statistisch signifikanten Veränderungen”. For the same compound, the “transkutane Sauerstoffdruckwerte (tcpO2-Werte), Vorfuß” value in experiment [3] (4 g Magnesiumorotat oral, statistically confirmed at 15 and 30 Minuten) is “Anstieg”. Further, the Hämatokritwert entry in experiment [3] (4 g Magnesiumorotat oral, tendency to rise again at end of test) is on record as “temporäre Abnahme”. In experiment [3] (4 g Magnesiumorotat oral, time after tablet intake), the “Zeitpunkt des Minimums der Blutviskosität” value is 30 Minuten. Further, the “Zeitpunkt des Minimums der relativen Plasmaviskosität” value in experiment [3] (4 g Magnesiumorotat oral, time after tablet intake, then tendency to normalise) was 60 Minuten. In addition, the “Mikrozirkulation (Kapillarfluß an dem Nagelbett)” value in experiment [3] (acute oral dose of 4 g Magnesiumorotat) is reported as “erheblich verbesserten”. For the same compound, in experiment [3] (acute oral dose of 4 g Magnesiumorotat, patients with arterial occlusive disease), the “Blut- und Plasmaviskosität” value is “signifikant vermindert”. The compound also had an Insulinkonzentration in experiment [4] (control group 139 ± 101 %, significant) of 65 ± 43 % der Anfangswerte. Besides, in experiment [4] (control group 187 ± 34 %, significantly lower), the “Anstieg der Glukosekonzentration während des Tests” value amounted to 118 ± 45%. Further, the “periarterielle Zellinfiltrationen und Herzmuskelzellausfälle” value in experiment [5] (300 mg Magnesiumorotat daily, compared with no treatment) is recorded as “weit weniger”. Further, the “Blutdruck systolisch, Ende der ROG-Hypertonie” value in experiment [5] (ROG-Modell, 300 mg Magnesiumorotat daily, untreated control animals 186 mmHg) was 152 mmHg. Moreover, the “Blutdruck systolisch, Ausgangswert” value in experiment [5] (ROG-Modell, start of ROG-Hypertonie, treated group, control 81 mmHg) is listed as 79 mmHg.

As to `O=C(O)c1cc(=O)[nH]c(=O)[nH]1` [Orotsäure], in experiment [2], the “Wirkung bei Mikroangiopathien von kleinen und kleinsten Blutgefäßen am Herzen” value is given as “präventive und therapeutische Wirkung”. For the same compound, in experiment [1], the “Index arteriosklerotischer Gefäßveränderungen (Gefäßverengungen)” value is 9,77.
